Measured values reported in US20120329860A1, “Uses of Beta-Nicotinamide Adenine Dinucleotide” (MEDICAL COLLEGE OF GEORGIA INSTITUTE, INC, priority 2010, published 2012).
Entries after “also recorded” stand apart in the source; their conditions may differ.

Legend:
HPAEC monolayers = test: Transendothelial electrical resistance (TER) by ECIS in HPAEC monolayers; assay type: cell-based, human
Description: Human pulmonary artery endothial cells (HPAEC) and EBM-2 complete medium were purchased from Lonza (Allendale, N.J.). HPAEC were cultured according to the manufacturer's protocol and utilized at early (3-6) passages.
The barrier properties of endothelial cells monolayers were characterized using a highly sensitive electrical cell-substrate impedance sensing (ECIS) instrument to measure transendothelial electrical resistance (TER) as described (Birukova et al., 2004a. Microvasc Res 67(1):64-77; Kolosova et al., 2005, Circ Res 97(2):115-124). The TER data was normalized to the initial voltage.

[1] = system: pro-inflammatory/anti-inflammatory cytokines gene expression; test: qPCR of cytokine gene expression in lungs; assay type: in vivo; settings: LPS/β-NAD vs LPS only mice
Description: Total RNA was prepared from the lung of mouse tissue using RNeasy mini kit (Qiagen, Valencia, Calif.). The mRNA was reverse-transcribed into complementary deoxyribonucleic acid (cDNA) using iScript reagents from Bio-Rad on a programmable thermal cycler (PCR-Sprint, Thermo Electron, Milford, Mass.). 50 ng of cDNA was amplified in each real-time polymerase chain reaction using ABgene reagents (distributed by Fisher Scientific), Bio-Rad myiQ Cycler and Custom-designed primers for genes specific to the mice (Integrated DNA Technologies, Coralville, Iowa). The Reverse transcription reaction was carried out for 25 min at 42° C. and terminated for 5 min at 85° C. Real time PCR was performed by denaturation for 30 sec at 94° C., annealing for 30 sec at 60° C. for a total of 40 cycles. The glyceraldehyde-3-phosphate dehydrogenase (GAPDH) was used to normalize the expression of the target genes.

For `NC(=O)C1=CN([C@@H]2O[C@H](COP(=O)(O)OP(=O)(O)OC[C@H]3O[C@@H](n4cnc5c(N)ncnc54)[C@H](O)[C@@H]3O)[C@@H](O)[C@H]2O)C=CC1` [β-NAD, beta-nicotinamide adenine dinucleotide], the “thrombin-induced endothelial cell permeability (TER)” value (HPAEC monolayers; 100 nM thrombin in mixture with 50 mM b-NAD) was “significantly attenuated the thrombin-induced endothelial cell permeability”, the “decrease in TER from base line” value (HPAEC monolayers; LPS (100 ng/ml) with β-NAD added) was about 30% and the “PLY-induced loss of monolayer integrity (TER)” value (HPAEC monolayers; PLY in a mixture with 50 mM β-NAD) was “failed to produce such drastic effect”. The “TER of HPAEC monolayers (endothelial barrier function)” value (HPAEC monolayers; b-NAD alone, quiescent HPAEC, 10-100 mM as printed) was “positive effect; also recorded: significant initial increase in TER”, the “β-NAD effect on TER after cytochalasin B” value (HPAEC monolayers; cytochalasin B pretreatment 30 min, then 50 μM β-NAD) was “did not increase the TER” and the “β-NAD effect on TER after nocodazole” value (HPAEC monolayers; nocodazole pretreatment 30 min, then 50 μM β-NAD) was “restored endothelial cell barrier integrity”. The “anti-inflammatory cytokines (IL-4, IL-10, and IL-13) gene expression in lungs” value [1] was “elevated” and the “proinflammatory cytokines (IL-1α, IL-1β, IFN-γ and TNF-α) gene expression in lungs” value [1] was “substantially or markedly downregulated”.
